Marks after values point to notes of the source that are not given here.
Legend:
DR4 = biological target: T1, DR4 (Homo sapiens, UniProt O00220); assay: CLEIA binding specificity; conditions: DR4-His-EC coated; antibody 200, 40 and 8 ng/mL
T1 construct: His; Lot: 090222-P; host or cells: E. coli
Procedure: (§1) The binding specificity of HuCTB006 was evaluated by chemiluminescent enzyme immunoassay (CLEIA).
(§2) HuCTB006 was diluted into 200, 40 and 8 ng/mL and then added to the wells. After 1 hour incubation in 37° C., the plate was washed. The binding of HuCTB006 with immobilized antigens was detected with HRP labeled secondary antibody and a substrate solution.

[1] = biological target: T2, DcR1 (recombinant human TRAIL R3/TNFRSF10C) (Homo sapiens, UniProt O14798); assay: CLEIA binding specificity; conditions: DcR1-His coated; antibody 200, 40 and 8 ng/mL
T2 construct: His; purchased Novoprotein Science Lot: 0328670
T2 sequence (O14798 26-236): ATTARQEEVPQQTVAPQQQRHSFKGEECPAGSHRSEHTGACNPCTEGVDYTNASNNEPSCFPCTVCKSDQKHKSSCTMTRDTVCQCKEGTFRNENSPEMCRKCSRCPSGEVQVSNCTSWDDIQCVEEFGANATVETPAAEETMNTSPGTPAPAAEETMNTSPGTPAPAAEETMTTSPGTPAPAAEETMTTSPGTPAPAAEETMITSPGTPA
Procedure: as §1, §2

[2] = biological target: T3, DcR2 (recombinant human TRAIL R4/TNFRSF10D) (Homo sapiens, UniProt Q9UBN6); assay: CLEIA binding specificity; conditions: DcR2-His coated; antibody 200, 40 and 8 ng/mL
T3 construct: His; purchased Sino Biological Lot: LC06JU1502
T3 sequence (Q9UBN6 56-386): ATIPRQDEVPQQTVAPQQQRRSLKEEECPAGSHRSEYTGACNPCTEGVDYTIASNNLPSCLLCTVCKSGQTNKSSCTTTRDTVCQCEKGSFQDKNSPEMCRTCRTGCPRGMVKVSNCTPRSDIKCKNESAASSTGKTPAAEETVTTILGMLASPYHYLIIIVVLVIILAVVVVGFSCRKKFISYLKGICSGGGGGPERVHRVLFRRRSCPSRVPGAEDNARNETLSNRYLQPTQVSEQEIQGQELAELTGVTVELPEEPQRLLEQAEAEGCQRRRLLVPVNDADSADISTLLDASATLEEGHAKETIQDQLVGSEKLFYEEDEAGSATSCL
Procedure: as §1, §2

[3] = biological target: T4, OPG (recombinant human osteroprotegerin/TNFRSF11B) (Homo sapiens, UniProt O00300); assay: CLEIA binding specificity; conditions: OPG-His coated; antibody 200, 40 and 8 ng/mL
T4 construct: His; purchased Wuxi Pharmatech Co. Ltd Lot: 20120717
T4 sequence (O00300 22-401): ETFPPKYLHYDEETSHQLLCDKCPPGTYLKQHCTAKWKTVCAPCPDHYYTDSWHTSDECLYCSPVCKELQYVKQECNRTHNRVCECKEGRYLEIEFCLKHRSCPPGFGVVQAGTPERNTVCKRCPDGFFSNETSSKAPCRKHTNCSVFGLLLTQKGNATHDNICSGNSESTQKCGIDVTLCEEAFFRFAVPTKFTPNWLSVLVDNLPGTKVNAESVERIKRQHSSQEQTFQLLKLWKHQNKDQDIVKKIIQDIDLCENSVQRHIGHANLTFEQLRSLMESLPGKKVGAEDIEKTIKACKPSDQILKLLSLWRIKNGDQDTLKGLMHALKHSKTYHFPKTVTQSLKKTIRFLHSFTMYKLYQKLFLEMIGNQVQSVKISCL
Procedure: as §1, §2

BXPC3 = assay: Cytotoxicity on human tumor cell lines (ATPLite); format: cell-based
Procedure: (§3) Eighteen human tumor cell lines were treated with 62.5, 125, 250, 500, or 1000 ng/mL HuCTB006 or different concentrations of chemotherapy drugs, which act as positive controls. […] The culture medium for SK-Hep-1, HepG2, HCT116, SW480, WiDr (1×NEAA), MIA-PaCa-2 (2.5% Horse serum) MDA-MB-231 (1 mM NaPyr, 1×MEM-NEAA, 1×MEM VITAMIN) was DMEM. The culture medium for COLO205, BXPC3 (2 mM glutamin, 10 mM HEPES), Panc2.03 (15FBS, 1 mM NaPyr, 1×MEM-NEAA, […], 10 mM HEPES), H2122, OVCAR3 (1 mM NaPyr, 10 ug/ml human insulin, 10 mM HEPES, 2.5 g/L glucose), Molt-4 (HEPES, 2.5 g/l glocose), Jurkat (HEPES, 2.5 g/l glocose) was RPMI-1640, the culture medium for SK-MES-1 was Eagle's MEM, the culture medium for 2-LMP and DY36T2 was IMEM, and the culture medium for SUM102 (5 ug/ml insulin) was F-12K. The cell viability was determined by ATPLite Assay Kit. If the IC50 value was lower than 62.5 ng/mL, the cells were treated with higher concentration of CTB006 in the second round of experiments to determine IC50 value.

COLO205 = assay: Cytotoxicity on human tumor cell lines (ATPLite); format: cell-based
Procedure: as §3

Jurkat = assay: Cytotoxicity on human tumor cell lines (ATPLite); format: cell-based
Procedure: as §3

MDA-MB-231 = assay: Cytotoxicity on human tumor cell lines (ATPLite); format: cell-based
Procedure: as §3

[4] = test system: human colon cancer tumor cells Colo205; assay: Colo205 subcutaneous model; format: in vivo, nude mice; conditions: for Tumor Volume (cm^3) Mean ± SEM / TGI (Calculated using tumor volume): Day 28 after treatment; for Time of tumor volume changed significantly: days after first treatment; for Tumor weight (g) Mean ± SEM / TGI (Calculated using tumor weight): end of experiment
Procedure: (§4) Tumor cells (i.e., MIA-PaCa-2, WiDr, H2122, colo205) were inoculated in nude mice's flank at 5×10^6 cells per mouse. The mice were grouped when the average volume of tumors reached about 100˜200 mm^3. “QW”=weekly dose. “Q3d”=dosed every third day. “BiW”=biweekly.
(§5) The bodyweight and major/minor axis of the mice were measured twice a week, and the tumor volumes were calculated using the formula: Tumor volume=1/2×major axis[…]. […] “T” represents average tumor volume of the experimental group (cm^3), and “C” represents average tumor volume of the control group (cm^3). The animals were monitored at all times. The bodyweight and major/minor axis or mice were measured twice a week.
(§6) Tumor volumes were represented with average ±standard error. […] P<0.05 represents significant difference.

[5] = test system: human colon cancer tumor cells Widr; assay: WiDr subcutaneous model; format: in vivo, nude mice; conditions: for Tumor Volume (cm^3) Mean ± SEM / TGI (Calculated using tumor volume): Day 27 after treatment; for TGI (Calculated using tumor volume): listed as HuTB006; for Tumor weight (g) Mean ± SEM: end of experiment
Procedure: as §4, §5, §6

[6] = test system: human lung cancer tumor cells H2122; assay: H2122 subcutaneous model; conditions: for Tumor Volume (cm^3) Mean ± SEM: Day 38 after treatment; for Tumor weight (g) Mean ± SEM: end of experiment
Procedure: (§7) The bodyweight and major/minor axis of the mice were measured twice a week, and the tumor volumes were calculated using the formula: Tumor volume=1/2×major axis×minor axis. […] “T” represents average tumor volume of the experimental group (cm^3), and “C” represents average tumor volume of the control group (cm^3). The animals were monitored at all times. The bodyweight and major/minor axis or mice were measured twice a week. When the experiments were concluded, mice were sacrificed and tumors were extracted and weighted.
(§8) Tumor volumes were represented with average ±standard error. Data analysis was done using Spss16.0, One-Way ANOVA, LSD (homogeneity of variance) or Dunnett T3 (non-homogeneity of variance). […] P<0.05 represents significant difference.

[7] = test system: human pancreatic cancer tumor cells MIA-PaCa-2; assay: MIA-PaCa-2 subcutaneous model; conditions: for Tumor Volume (cm^3) Mean ± SEM: 34 days of treatment; for Time of tumor volume changed significantly: days after first treatment; for Tumor weight (g) Mean ± SEM: end of experiment; for bodyweights: MIA-PaCa-2 model, over the treatment time
Procedure: as §7, §8

[8] = HuCTB006 0.6 mg/kg i.v., 0.6 mg/kg
[9] = HuCTB006 1.8 mg/kg i.v., 1.8 mg/kg
[10] = HuCTB006 5.4 mg/kg i.v., 5.4 mg/kg

Q: Which results are given for “HuCTB006: Monospecific humanized chimeric monoclonal antibody directed to TRAIL-R2 receptor; heavy chain SEQ ID NO: 16, light chain SEQ ID NO: 14”?
A: cross-reaction with coated antigen (CLEIA) (DR4): no cross-reaction; cross-reaction with coated antigen (CLEIA) [1]: no cross-reaction; cross-reaction with coated antigen (CLEIA) [2]: no cross-reaction; cross-reaction with coated antigen (CLEIA) [3]: no cross-reaction; IC50 (BXPC3): ~0.01 µg/mL; IC50 (COLO205): ~0.01 µg/mL; IC50 (Jurkat): ~0.01 µg/mL; IC50 (MDA-MB-231): ~0.01 µg/mL; Tumor Volume (cm^3) Mean ± SEM ([4]; HuCTB006 0.2 mg/kg i.v.): 1.24 ± 0.20 cm^3; Time of tumor volume changed significantly ([4]; HuCTB006 0.2 mg/kg i.v.): 10 days; Tumor weight (g) Mean ± SEM ([4]; HuCTB006 0.2 mg/kg i.v.): 0.84 ± 0.14 g; TGI (Calculated using tumor volume) ([4]; HuCTB006 0.6 mg/kg i.v.): 84.78%; Tumor Volume (cm^3) Mean ± SEM ([4]; HuCTB006 0.6 mg/kg i.v.): 0.29 ± 0.13 cm^3; TGI (Calculated using tumor volume) [4, 8]: 84.78%*; TGI (Calculated using tumor weight) ([4]; HuCTB006 0.6 mg/kg i.v.): 84.07%; Tumor weight (g) Mean ± SEM ([4]; HuCTB006 0.6 mg/kg i.v.): 0.20 ± 0.10 g; TGI (Calculated using tumor weight) [4, 8]: 84.07%*; TGI (Calculated using tumor volume) ([4]; HuCTB006 1.8 mg/kg i.v.): 80.07%; Tumor Volume (cm^3) Mean ± SEM ([4]; HuCTB006 1.8 mg/kg i.v.): 0.38 ± 0.16 cm^3; TGI (Calculated using tumor volume) [4, 9]: 80.07%*; TGI (Calculated using tumor weight) ([4]; HuCTB006 1.8 mg/kg i.v.): 81.78%; Tumor weight (g) Mean ± SEM ([4]; HuCTB006 1.8 mg/kg i.v.): 0.23 ± 0.12 g; TGI (Calculated using tumor weight) [4, 9]: 81.78%*; TGI (Calculated using tumor volume) ([4]; HuCTB006 5.4 mg/kg i.v.): 85.24%; Tumor Volume (cm^3) Mean ± SEM ([4]; HuCTB006 5.4 mg/kg i.v.): 0.28 ± 0.10 cm^3; TGI (Calculated using tumor volume) [4, 10]: 85.24%*; Time of tumor volume changed significantly ([4]; HuCTB006 5.4 mg/kg i.v.): 7~10^2 days; TGI (Calculated using tumor weight) ([4]; HuCTB006 5.4 mg/kg i.v.): 88.15%; Tumor weight (g) Mean ± SEM ([4]; HuCTB006 5.4 mg/kg i.v.): 0.15 ± 0.07 g; TGI (Calculated using tumor weight) [4, 10]: 88.15%*; Tumor Volume (cm^3) Mean ± SEM ([5]; HuCTB006 0.07 mg/kg i.v.): 1.76 ± 0.18 cm^3; TGI (Calculated using tumor volume) ([5]; HuCTB006 0.07 mg/kg i.v.): 6.61%^1; Tumor weight (g) Mean ± SEM ([5]; HuCTB006 0.07 mg/kg i.v.): 1.29 ± 0.18 g; Tumor Volume (cm^3) Mean ± SEM ([5]; HuCTB006 0.22 mg/kg i.v.): 1.54 ± 0.18 cm^3; TGI (Calculated using tumor volume) ([5]; HuCTB006 0.22 mg/kg i.v.): 18.71%^ac; Tumor weight (g) Mean ± SEM ([5]; HuCTB006 0.22 mg/kg i.v.): 1.16 ± 0.13 g; Tumor Volume (cm^3) Mean ± SEM ([5]; HuCTB006 0.67 mg/kg i.v.): 0.96 ± 0.10 cm^3; Tumor weight (g) Mean ± SEM ([5]; HuCTB006 0.67 mg/kg i.v.): 0.68 ± 0.08 g; Tumor Volume (cm^3) Mean ± SEM ([5]; HuCTB006 2 mg/kg i.v.): 0.80 ± 0.11 cm^3; Tumor weight (g) Mean ± SEM ([5]; HuCTB006 2 mg/kg i.v.): 0.53 ± 0.08 g; Tumor Volume (cm^3) Mean ± SEM ([6]; HuCTB006 0.2 mg/kg i.v.): 1.85 ± 0.15 cm^3; Tumor weight (g) Mean ± SEM ([6]; HuCTB006 0.2 mg/kg i.v.): 1.54 ± 0.09 g; Tumor Volume (cm^3) Mean ± SEM ([6]; HuCTB006 0.6 mg/kg i.v.): 1.02 ± 0.31 cm^3; Tumor weight (g) Mean ± SEM ([6]; HuCTB006 0.6 mg/kg i.v.): 0.89 ± 0.29 g; Tumor Volume (cm^3) Mean ± SEM ([6]; HuCTB006 1.8 mg/kg i.v.): 0.16 ± 0.16 cm^3; Tumor weight (g) Mean ± SEM ([6]; HuCTB006 1.8 mg/kg i.v.): 0.12 ± 0.12 g; Tumor Volume (cm^3) Mean ± SEM ([6]; HuCTB006 5.4 mg/kg i.v.): 0.18 ± 0.18 cm^3; Tumor weight (g) Mean ± SEM ([6]; HuCTB006 5.4 mg/kg i.v.): 0.19 ± 0.18 g; Tumor Volume (cm^3) Mean ± SEM ([7]; HuCTB006 0.2 mg/kg i.v.): 1.76 ± 0.15 cm^3; Time of tumor volume changed significantly ([7]; HuCTB006 0.2 mg/kg i.v.): 13 days; Tumor weight (g) Mean ± SEM ([7]; HuCTB006 0.2 mg/kg i.v.): 0.79 ± 0.07 g; Tumor Volume (cm^3) Mean ± SEM ([7]; HuCTB006 0.6 mg/kg i.v.): 1.27 ± 0.43 cm^3; Tumor weight (g) Mean ± SEM ([7]; HuCTB006 0.6 mg/kg i.v.): 0.54 ± 0.21 g; Tumor Volume (cm^3) Mean ± SEM ([7]; HuCTB006 1 mg/kg i.v.): 0.88 ± 0.35 cm^3; Tumor weight (g) Mean ± SEM ([7]; HuCTB006 1 mg/kg i.v.): 0.37 ± 0.19 g; Tumor Volume (cm^3) Mean ± SEM ([7]; HuCTB006 10 mg/kg i.v.): 0.76 ± 0.22 cm^3; Time of tumor volume changed significantly ([7]; HuCTB006 10 mg/kg i.v.): 7^2 days; Tumor weight (g) Mean ± SEM ([7]; HuCTB006 10 mg/kg i.v.): 0.19 ± 0.08 g; bodyweights [7]: slow increase

Q: What does the source list for `Nc1ccn([C@@H]2O[C@H](CO)[C@@H](O)C2(F)F)c(=O)n1` [Gemcitabine, reference compound]?
A: Tumor Volume (cm^3) Mean ± SEM ([7]; Gemcitabine 60 mg/kg i.p.): 1.60 ± 0.11 cm^3; bodyweights [7]: decreased significantly by the third dosing; tumor regression ([7]; first experiment): not found; tumor regression ([7]; repeated experiment): not found

From US20180333491A1 (Sinotau Pharmaceuticals Group, priority 2015, published 2018)
